Assay results taken from PubChem BioAssay AID248 (DTP/NCI, 2004).
Toxic doses and inconclusive results are not listed. Cut-off read from the data, not from the text of the source: active = T/C of 150% or more; inactive = T/C below 125%. Peptide text beside a SMILES is read from it. * marks the point of attachment. Trt = c1ccc(C(c2ccccc2)(c2ccccc2)*)cc1; OtBu = CC(C)(C)O*

System: L1210 leukemia ip in BDF1 mice, survival T/C
Experiment: NCI In Vivo Anticancer Drug Screen. Data for tumor model L1210 Leukemia (intraperitoneal) in B6D2F1 (BDF1) mice
Details: endpoint: mean survival time, higher = longer survival
Procedure, shortened: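 Transplantable tumor model; survival measured in treated vs vehicle control mice. Value = treated/control.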

[1] = dose: 25.0 mg/kg/injection, schedule: Q04DX003 (ip), vehicle: saline with Tween-80
[2] = dose: 50.0 mg/kg/injection, schedule: Q04DX003 (ip), vehicle: saline with Tween-80
[3] = dose: 100.0 mg/kg/injection, schedule: Q04DX003 (ip), vehicle: saline with Tween-80
[4] = dose: 100.0 mg/kg/injection, schedule: Q04DX002 (ip), vehicle: Klucel (hydroxypropylcellulose) (HPC)
[5] = dose: 200.0 mg/kg/injection, schedule: Q04DX002 (ip), vehicle: Klucel (hydroxypropylcellulose) (HPC)
[6] = dose: 100.0 mg/kg/injection, schedule: Q01DX001 (ip), vehicle: saline
[7] = dose: 200.0 mg/kg/injection, schedule: Q01DX001 (ip), vehicle: saline
[8] = dose: 400.0 mg/kg/injection, schedule: Q01DX001 (ip), vehicle: saline

Measured: T/C

S=C(S)NNc1ccccc1
inactive: [1] 104 % of control | dose: 50.0 mg/kg/injection, schedule: Q01DX009 (ip), vehicle: saline with Tween-80 86 % of control | [2] 109 % of control | dose: 100.0 mg/kg/injection, schedule: Q01DX009 (ip), vehicle: saline with Tween-80 86 % of control | [3] 109 % of control

C1CCC2[N-]CC3CCCCC3[N-]CC3CCCCC3[N-]CC3CCCCC3[N-]CC2C1.CO.[Co+3] (stereo not given)
inactive: [4] 110 % of control | [5] 103 % of control

O=[N+]([O-])c1c(-c2ccccc2)no[n+]1[O-]
inactive: dose: 40.0 mg/kg/injection, schedule: Q04DX003 (ip), vehicle: Klucel (hydroxypropylcellulose) (HPC) 91 % of control | dose: 80.0 mg/kg/injection, schedule: Q04DX003 (ip), vehicle: Klucel (hydroxypropylcellulose) (HPC) 96 % of control

CC1=C(C)CS(=O)(=O)C1
inactive: [1] 95 % of control | [2] 101 % of control | [3] 102 % of control

CCCCCCNc1c([N+](=O)[O-])cc(C)cc1[N+](=O)[O-]
inactive: dose: 100.0 mg/kg/injection, schedule: Q01DX009 (ip), vehicle: Klucel (hydroxypropylcellulose) (HPC) 100 % of control | dose: 100.0 mg/kg/injection, schedule: Q04DX003 (ip), vehicle: Klucel (hydroxypropylcellulose) (HPC) 103 % of control | dose: 200.0 mg/kg/injection, schedule: Q01DX009 (ip), vehicle: Klucel (hydroxypropylcellulose) (HPC) 111 % of control | dose: 200.0 mg/kg/injection, schedule: Q04DX003 (ip), vehicle: Klucel (hydroxypropylcellulose) (HPC) 116 % of control | dose: 400.0 mg/kg/injection, schedule: Q01DX009 (ip), vehicle: Klucel (hydroxypropylcellulose) (HPC) 96 % of control | dose: 400.0 mg/kg/injection, schedule: Q04DX003 (ip), vehicle: Klucel (hydroxypropylcellulose) (HPC) 108 % of control

CN(C)/N=C/c1nccc2ccccc12
inactive: dose: 50.0 mg/kg/injection, schedule: Q01DX001 (ip), vehicle: saline 98 % of control | [6] 93 % of control | [7] 93 % of control

O=c1[nH]cc([N+](=O)[O-])c(=O)[nH]1
inactive: dose: 100.0 mg/kg/injection, schedule: Q04DX002 (ip), vehicle: saline 100 % of control | dose: 200.0 mg/kg/injection, schedule: Q04DX002 (ip), vehicle: saline 106 % of control | dose: 400.0 mg/kg/injection, schedule: Q04DX002 (ip), vehicle: saline 95 % of control

CC(C)(C)OC(=O)CNC(=O)C(Cc1ccccc1)NC(=O)C(N)CSC(c1ccccc1)(c1ccccc1)c1ccccc1 (stereo not drawn) (H-Cys(Trt)-Phe-Gly-OtBu; configuration not given here)
inactive: dose: 264.0 mg/kg/injection, schedule: Q01DX001 (ip), vehicle: carboxymethylcellulose (CMC) 104 % of control | dose: 264.0 mg/kg/injection, schedule: Q01DX001 (ip), vehicle: saline 110 % of control | dose: 400.0 mg/kg/injection, schedule: Q01DX001 (ip), vehicle: carboxymethylcellulose (CMC) 107 % of control | [8] 115 % of control

O=C1C/C(=C\c2ccccc2O)C(=O)c2ccccc21
inactive: dose: 10.0 mg/kg/injection, schedule: Q04DX002 (ip), vehicle: Klucel (hydroxypropylcellulose) (HPC) 101 % of control | dose: 20.0 mg/kg/injection, schedule: Q04DX002 (ip), vehicle: Klucel (hydroxypropylcellulose) (HPC) 93 % of control | dose: 40.0 mg/kg/injection, schedule: Q04DX002 (ip), vehicle: Klucel (hydroxypropylcellulose) (HPC) 101 % of control

O=C(Nc1ccccc1Cl)Oc1ccc(-c2ccccc2)cc1
inactive: [4] 95 % of control | [5] 95 % of control | dose: 400.0 mg/kg/injection, schedule: Q04DX002 (ip), vehicle: Klucel (hydroxypropylcellulose) (HPC) 106 % of control

CCOc1ccc(C=C(C#N)C#N)cc1OCC
inactive: [6] 105 % of control | [7] 102 % of control | [8] 90 % of control

C=CCCCCCCCCC(=O)NN1CCOCC1
inactive: [3] 98 % of control | dose: 200.0 mg/kg/injection, schedule: Q04DX003 (ip), vehicle: saline with Tween-80 92 % of control | dose: 400.0 mg/kg/injection, schedule: Q04DX003 (ip), vehicle: saline with Tween-80 92 % of control
